According to patent publication US11815509B2, “Cell line and uses thereof” (priority 2017, dated 2023):

How the values were obtained:
SenzaCell cells = settings: 24 h stimulation, compared between the two chemicals, FIG. 6
MUTZ-3 cells = settings: 24 h stimulation, compared between the two chemicals, FIG. 6

With `C=CC(=O)OCCO` [2-hydroxyethylacrylate] the “SVM prediction value (prediction pattern)” value (SenzaCell cells) was “higher prediction value than DNCB” and the “SVM prediction value (prediction pattern)” value (MUTZ-3 cells) was “higher prediction value than DNCB”.
